{
  "source": "paper PMC10570359",
  "about": "“Dietary supplementation of cystinotic mice by lysine inhibits the megalin pathway and decreases kidney cystine content” (Scientific Reports, 2023)",
  "key": {"porcine megalin [1]": {"biological_target": "T1, porcine megalin (Sus scrofa, UniProt C0HL13)", "T1 sequence (C0HL13 26-4652)": "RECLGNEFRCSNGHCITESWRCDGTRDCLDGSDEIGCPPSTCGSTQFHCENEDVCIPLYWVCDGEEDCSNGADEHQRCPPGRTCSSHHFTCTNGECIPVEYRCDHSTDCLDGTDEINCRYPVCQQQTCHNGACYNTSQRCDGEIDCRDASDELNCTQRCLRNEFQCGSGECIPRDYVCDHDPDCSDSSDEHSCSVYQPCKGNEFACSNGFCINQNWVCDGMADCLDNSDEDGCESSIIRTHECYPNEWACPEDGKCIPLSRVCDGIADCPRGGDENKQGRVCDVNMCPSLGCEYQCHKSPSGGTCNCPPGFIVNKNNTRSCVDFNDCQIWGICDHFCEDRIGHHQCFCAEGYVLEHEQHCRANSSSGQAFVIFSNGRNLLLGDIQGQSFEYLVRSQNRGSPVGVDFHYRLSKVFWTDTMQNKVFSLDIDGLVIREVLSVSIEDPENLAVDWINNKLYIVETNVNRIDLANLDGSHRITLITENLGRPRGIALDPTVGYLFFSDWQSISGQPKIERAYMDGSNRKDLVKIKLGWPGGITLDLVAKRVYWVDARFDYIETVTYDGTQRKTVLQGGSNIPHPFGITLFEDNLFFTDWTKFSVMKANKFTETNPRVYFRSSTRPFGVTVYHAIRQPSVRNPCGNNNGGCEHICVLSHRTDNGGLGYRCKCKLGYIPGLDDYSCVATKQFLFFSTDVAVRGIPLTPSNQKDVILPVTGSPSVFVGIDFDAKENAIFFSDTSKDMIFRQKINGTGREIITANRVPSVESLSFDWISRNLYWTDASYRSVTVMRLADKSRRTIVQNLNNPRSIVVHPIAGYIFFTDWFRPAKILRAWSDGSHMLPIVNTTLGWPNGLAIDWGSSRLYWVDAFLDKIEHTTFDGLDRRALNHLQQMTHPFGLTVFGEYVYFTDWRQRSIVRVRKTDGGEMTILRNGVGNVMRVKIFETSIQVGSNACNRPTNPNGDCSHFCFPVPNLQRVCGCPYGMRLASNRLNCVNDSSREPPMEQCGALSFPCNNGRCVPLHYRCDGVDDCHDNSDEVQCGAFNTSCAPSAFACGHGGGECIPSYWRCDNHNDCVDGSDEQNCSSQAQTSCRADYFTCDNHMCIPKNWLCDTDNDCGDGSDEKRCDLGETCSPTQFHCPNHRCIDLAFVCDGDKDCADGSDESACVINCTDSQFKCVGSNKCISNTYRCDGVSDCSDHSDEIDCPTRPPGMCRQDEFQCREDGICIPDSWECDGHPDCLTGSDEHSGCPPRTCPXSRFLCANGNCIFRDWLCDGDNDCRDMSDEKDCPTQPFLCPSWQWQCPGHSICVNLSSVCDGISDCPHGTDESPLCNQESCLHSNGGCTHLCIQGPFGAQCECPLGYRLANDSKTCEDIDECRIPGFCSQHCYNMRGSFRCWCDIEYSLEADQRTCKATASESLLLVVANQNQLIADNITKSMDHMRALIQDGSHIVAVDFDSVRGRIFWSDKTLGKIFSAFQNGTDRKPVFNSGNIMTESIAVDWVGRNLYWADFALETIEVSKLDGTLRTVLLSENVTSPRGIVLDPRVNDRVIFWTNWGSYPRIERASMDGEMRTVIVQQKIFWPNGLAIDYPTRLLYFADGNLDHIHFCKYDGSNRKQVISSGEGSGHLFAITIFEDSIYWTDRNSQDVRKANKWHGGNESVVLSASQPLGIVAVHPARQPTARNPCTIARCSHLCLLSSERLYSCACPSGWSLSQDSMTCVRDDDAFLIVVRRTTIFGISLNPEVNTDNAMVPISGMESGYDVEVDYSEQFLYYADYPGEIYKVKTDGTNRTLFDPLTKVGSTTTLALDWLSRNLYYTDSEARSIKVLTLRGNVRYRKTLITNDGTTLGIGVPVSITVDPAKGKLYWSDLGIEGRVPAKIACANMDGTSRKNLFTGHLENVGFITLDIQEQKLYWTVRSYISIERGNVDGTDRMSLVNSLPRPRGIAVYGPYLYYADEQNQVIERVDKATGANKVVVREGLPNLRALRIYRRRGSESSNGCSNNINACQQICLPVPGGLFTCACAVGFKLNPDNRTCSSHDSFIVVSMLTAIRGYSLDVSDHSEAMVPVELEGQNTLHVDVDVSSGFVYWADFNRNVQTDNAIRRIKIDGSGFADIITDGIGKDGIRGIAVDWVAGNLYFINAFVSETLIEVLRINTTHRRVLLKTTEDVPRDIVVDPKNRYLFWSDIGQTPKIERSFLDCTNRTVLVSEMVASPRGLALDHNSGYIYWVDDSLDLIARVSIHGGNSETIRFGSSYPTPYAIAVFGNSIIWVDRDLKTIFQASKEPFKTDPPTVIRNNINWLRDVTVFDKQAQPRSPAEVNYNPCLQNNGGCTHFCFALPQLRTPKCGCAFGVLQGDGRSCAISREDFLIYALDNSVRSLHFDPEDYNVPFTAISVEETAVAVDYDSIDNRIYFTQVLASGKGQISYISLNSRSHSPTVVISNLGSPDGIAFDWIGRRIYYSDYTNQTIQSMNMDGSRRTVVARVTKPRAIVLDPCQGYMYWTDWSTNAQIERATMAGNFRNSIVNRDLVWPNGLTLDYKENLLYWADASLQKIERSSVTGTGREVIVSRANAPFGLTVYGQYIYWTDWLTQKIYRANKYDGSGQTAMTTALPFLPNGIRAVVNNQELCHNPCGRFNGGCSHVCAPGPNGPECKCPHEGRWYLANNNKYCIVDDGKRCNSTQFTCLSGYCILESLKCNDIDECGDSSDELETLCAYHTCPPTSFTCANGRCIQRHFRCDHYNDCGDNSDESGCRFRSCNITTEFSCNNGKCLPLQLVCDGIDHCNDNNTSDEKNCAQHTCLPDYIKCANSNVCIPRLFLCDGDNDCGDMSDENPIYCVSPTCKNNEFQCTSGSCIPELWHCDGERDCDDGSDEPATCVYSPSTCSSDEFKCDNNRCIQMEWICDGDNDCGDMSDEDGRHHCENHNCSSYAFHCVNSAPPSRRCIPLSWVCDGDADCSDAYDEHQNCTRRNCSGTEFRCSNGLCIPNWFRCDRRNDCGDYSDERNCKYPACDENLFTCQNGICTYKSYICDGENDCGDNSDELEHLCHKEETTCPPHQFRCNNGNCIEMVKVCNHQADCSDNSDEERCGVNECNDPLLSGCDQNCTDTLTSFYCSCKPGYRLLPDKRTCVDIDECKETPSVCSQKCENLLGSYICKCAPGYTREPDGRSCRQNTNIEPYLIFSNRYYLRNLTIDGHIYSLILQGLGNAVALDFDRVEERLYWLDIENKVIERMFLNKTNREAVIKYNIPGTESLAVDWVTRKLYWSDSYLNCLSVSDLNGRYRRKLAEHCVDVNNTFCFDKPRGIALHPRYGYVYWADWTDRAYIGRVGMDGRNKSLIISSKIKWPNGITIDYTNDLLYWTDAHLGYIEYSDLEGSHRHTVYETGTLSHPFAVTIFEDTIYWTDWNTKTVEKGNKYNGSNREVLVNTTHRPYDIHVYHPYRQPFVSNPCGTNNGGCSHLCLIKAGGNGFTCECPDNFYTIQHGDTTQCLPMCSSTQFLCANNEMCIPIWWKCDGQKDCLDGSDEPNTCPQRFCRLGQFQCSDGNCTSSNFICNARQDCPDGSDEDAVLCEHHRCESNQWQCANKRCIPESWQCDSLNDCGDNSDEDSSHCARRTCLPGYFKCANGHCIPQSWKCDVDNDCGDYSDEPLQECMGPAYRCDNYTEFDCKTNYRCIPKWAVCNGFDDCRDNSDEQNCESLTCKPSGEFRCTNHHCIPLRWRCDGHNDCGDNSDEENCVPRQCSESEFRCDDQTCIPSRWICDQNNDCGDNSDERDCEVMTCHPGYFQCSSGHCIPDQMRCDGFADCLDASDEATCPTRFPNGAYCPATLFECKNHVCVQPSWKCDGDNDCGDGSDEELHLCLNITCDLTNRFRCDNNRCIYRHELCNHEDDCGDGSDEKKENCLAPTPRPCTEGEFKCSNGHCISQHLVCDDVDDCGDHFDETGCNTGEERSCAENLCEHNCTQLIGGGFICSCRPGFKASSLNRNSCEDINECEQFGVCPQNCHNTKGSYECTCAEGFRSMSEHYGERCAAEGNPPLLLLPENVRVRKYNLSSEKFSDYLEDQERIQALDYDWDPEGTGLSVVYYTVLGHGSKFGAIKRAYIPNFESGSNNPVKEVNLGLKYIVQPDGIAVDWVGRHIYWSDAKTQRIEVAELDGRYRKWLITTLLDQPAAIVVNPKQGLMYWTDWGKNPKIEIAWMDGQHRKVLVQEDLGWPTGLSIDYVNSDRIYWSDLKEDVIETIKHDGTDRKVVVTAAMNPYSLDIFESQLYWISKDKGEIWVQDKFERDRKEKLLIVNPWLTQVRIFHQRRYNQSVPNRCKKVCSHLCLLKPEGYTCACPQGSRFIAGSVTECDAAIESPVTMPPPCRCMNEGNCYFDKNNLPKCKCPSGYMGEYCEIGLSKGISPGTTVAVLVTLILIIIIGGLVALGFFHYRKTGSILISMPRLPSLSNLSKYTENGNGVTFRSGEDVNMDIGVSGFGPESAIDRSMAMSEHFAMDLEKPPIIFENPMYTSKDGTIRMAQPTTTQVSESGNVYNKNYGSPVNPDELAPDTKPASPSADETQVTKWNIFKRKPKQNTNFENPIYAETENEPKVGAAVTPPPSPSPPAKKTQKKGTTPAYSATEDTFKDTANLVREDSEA", "test": "Surface plasmon resonance: competition for TC:B12 binding to chip-immobilized megalin", "details": "for IC50: 10 µg/ml TC:B12 in 0 to 100 mM amino-acid, Biacore; for SPR signal of amino-acid alone on megalin chip: chips exposed to increasing concentrations of amino-acid, no analyte", "description": "(§1) To directly address whether supra-physiological concentrations of dibasic amino-acids (dAAs) can interfere with binding of protein ligands to megalin, we used surface plasmon resonance. Sensor chips were derivatized with porcine megalin at high density. […] After flushing, chips were incubated with 10 µg/ml of three analytes: the megalin chaperone, RAP (receptor-associated protein), as positive control (not shown), or two physiological megalin ligands: transcobalamine:cobalamine complexes (TC:B12; Fig. 1; sensorgrams shown at Supplemental Fig. 1a) or lysozyme (Supplemental Fig. 1b), diluted in 0 to 100 mM of the same amino-acids in buffer. […] The supraphysiological range for effective competition in vitro defined the necessary increment in urinary concentration from dietary supplementation for significant competition in vivo.\nFigure 1 Acellular assay: direct competition for transcobalamine:cobalamine binding to megalin immobilized on Biacore sensor chips. Signals of sensorgrams (shown in Supplemental Fig. 1) were normalized to control signal without AA supplementation, taken as the unity, and are means ± SEM of at least four independent technical duplicate values at each of the indicated amino-acid-concentrations.\n(§2) Surface plasmon resonance (SPR) analysis of the binding to chip-immobilized megalin of receptor-associated protein (RAP), transcobalamine:cobalamine complex (TC:B12) and lysozyme was carried out using a Biacore T200 instrument (Uppsala, Sweden). The sensor chips (type CM5) were activated with a 1:1 mixture of 0.2 M N-ethyl-N′-(3-dimethylaminopropyl) carbodiimide and 0.05 M N-hydroxysuccinimide in H2O. Porcine megalin[49] was immobilized on the chip in 10 mM sodium acetate, pH 4.0, and the remaining binding sites were blocked with 1 M ethanolamine, pH 8.5. The SPR signal generated from immobilized megalin were obtained with a density of 4.5 fmol protein/mm^2.\n(§3) Human RAP was produced as recombinant protein in E. coli[50] and used to validate the sensor chip. TC was purified and complexed with B12 as described (TC/B12)[50],[51]. Human recombinant lysozyme was purchased from Sigma-Aldrich (expressed in rice, # L1667). Sensorgrams were generated using each of these three ligands at 10 µg/ml in a running buffer consisting of 10 mM Hepes, 150 mM NaCl, 4 mM CaCl2 and 0.05% Tween 20, pH 7.4. The flow cells were regenerated with 1 M ethanolamine pH 9.0. Analyte testing was performed as a dual injection starting with running buffer supplemented with the defined concentrations of amino acids followed by injection of analyte in the same solution. The pH of all buffers was adjusted after amino acids addition. All binding experiments were made as at least independent triplicate of technical duplicates and data were analyzed using the Biacore T200 evaluation software version 3.1."}, "porcine megalin [2]": {"biological_target": "T1, porcine megalin", "test": "Surface plasmon resonance: competition for lysozyme binding to chip-immobilized megalin", "details": "10 µg/ml lysozyme in 0 to 100 mM amino-acid", "description": "as §1, §2, §3"}, "[3]": {"test": "Tolerance of prolonged 5x-dAA diets in mice", "details": "ad libitum 5x-supplemented solid diet, approx. 45 mmoles/kg/day", "source_text": "Ctns knockout mice (C57BL/6 background) were kindly provided by Dr. Corinne Antignac[18]. […] The same increase was set for L- (and D-) lysine."}, "[4]": {"test": "Urinary and serum amino-acid concentration by mass spectrometry in Ctns KO mice", "type": "in vivo", "description": "(§4) Body weight was recorded before entering the metabolic cages. […] Creatinine clearance was normalized by mouse body weight.\nQuantitative analysis of underivatized amino-acids in serum and urine samples was performed using the Amino Acids LC–MS/MS analysis Kit Jasem®. […] Equipment was controlled and data were analyzed using MassHunter Workstation (Agilent Technologies). The assay was validated for selectivity, specificity, linearity and limit of quantification, accuracy and precision, matrix effects and recovery, and stability."}, "Ctns KO mice kidneys": {"tested_on": "Ctns KO mice kidneys", "test": "Kidney cystine content in Ctns KO mice", "type": "in vivo", "details": "diet from 6-to-8 months-of-age", "description": "For this pilot study, we selected tissue accumulation of cystine as a clear and measurable outcome to quantify long-term interference of dAAs with the endocytic supply of disulfide-rich plasma proteins to kidney PTCs.\n(§5) Mice were euthanized by cabon dioxide (CO2) inhalation. Dissected tissues were homogenized in 10 mM N-ethylmaleimide. Protein fraction was obtained after precipitation in 10% 5-sulfosalicylic acid and centrifugation at 20,000g for 20 min at 4 °C. Protein pellet was resuspended in 100 mM NaOH and assayed by the Bio-Rad Protein Assay according to manufacturer’s instructions. Supernatant (50 μl) was mixed with 50 μL of the internal standard solution (Cystine d6) and vortexed for 5 s; then the mixture was extracted with 200 μl of acetonitrile, vortexed for at least 30 s, then centrifuged at 13,000 rpm for 9 min. Liquid chromatography and mass spectrometry analysis was performed by a UHPLC Agilent 1290 Infinity II 6470 (Agilent Technologies) equipped with an ESI-JET-STREAM source operating in the positive ion (ESI +) mode. Equipment was controlled and data were analyzed using MassHunter Workstation (Agilent Technologies). The separation column was InfinityLab Poroshell 120 HILIC 1.9 μm 100 × 2.1 mm (Agilent Technologies). Validation of the method was performed basing on the US Food and Drug Administration (FDA) guideline for industry bioanalytical method validation (FDA 2013) and European Medicines Agency (EMA) guideline (EMA 2011). The assay was validated for selectivity, specificity, linearity and limit of quantification, accuracy and precision, matrix effects and recovery, and stability."}, "Ctns KO mice liver": {"tested_on": "Ctns KO mice liver", "test": "Liver cystine content in Ctns KO mice", "type": "in vivo", "details": "diet from 6-to-8 months-of-age", "description": "In the second study to explore the effects of the D-lysine stereoisomer, Ctns KO mice received control vs 5x-D-lysine diet from 6-to-8 months-of-age. Mean kidney cystine value at 8 months-of-age under control diet was 109.4 ± 23.0 nmol hemi-cystine/mg kidney protein, slightly lower than in the first study.\nas §5, with “The separation column was InfinityLab Poroshell 120 HILIC 1.9 μm 100 × 2.1 mm (Agilent Technologies). Validation of the method was performed basing on the US Food and Drug Administration (FDA) guideline for industry bioanalytical method validation (FDA 2013) and European Medicines Agency (EMA) guideline (EMA 2011).” left out"}, "megalin pathway [5]": {"tested_on": "megalin pathway", "test": "LMW proteinuria / albuminuria in Ctns KO mice under 5x-dAA diets", "procedure": "After 24-h adaptation in metabolic cages, urine was collected during the following 24 h in presence of 0.1% sodium azide and 1x-protease inhibitors (Thermo Scientific). When in metabolic cages, mice had free access to tap water and food. Blood was collected 2 days before starting the treatments and entry into metabolic cages (baseline) and at the sacrifice to obtain serum. Body weight was recorded before entering the metabolic cages. Urine and serum analyses were performed by the veterinary laboratory Appialab Srl (Rome, Italy). Urinary levels of CC16 were measured by the Mouse Clara Cell Protein 16 kit 96 T #EKU03200 (Biomatik) according to manufacturer’s instructions. Serum levels of cystatin-C were measured by the Mouse/Rat Cystatin C Quantitative ELISA #MSCTC0 (R&D Systems). […] Creatinine clearance was normalized by mouse body weight."}, "[6]": {"test": "Clinical urine and serum analyses in Ctns KO mice under 5x-dAA diets", "details": "Ctns KO mice at 8 months of age, 2 months of treatment, mean ± SEM", "text": "We also attempted to further discriminate between luminal (competition for surface megalin binding) and intracellular metabolic effects (see Discussion) by comparing the effects of 5x-L-lysine to its stereoisomer, 5x-D-lysine. Unless stated otherwise, diets were initiated at 6 months-of-age, and mice were studied then euthanized at 8 months-of-age (2-months treatment). This time frame was selected for two reasons. First, in the mouse cystinosis model, this an appropriate window to evaluate the impact on PTC alterations based on changes in kidney cystine accumulation and overall function. […] Second, although primary prevention by earlier intervention (from 2-to-6 months-of-age) better mimics perinatal genetic megalin ablation, thus could be more efficient, secondary intervention (starting at 6 months-of-age), when disease becomes clinically apparent, is more relevant for further translational studies.\nas §4"}, "megalin pathway [7]": {"tested_on": "megalin pathway", "test": "LMW proteinuria (urinary CC16) in WT mice under 5x-dAA diets", "type": "in vivo", "details": "WT C57Bl-6 mice, 3 weeks diet, vs control diet", "description": "In a second experiment, 5x-D-lysine was compared to regular diet.\nas §4"}, "[8]": {"details": "read-out: IC50 for TC:B12/megalin interaction (mM; 95%CI)"}, "[9]": {"details": "Ctns KO mice at 8 months of age, 24-h urine, mean ± SEM"}, "[10]": {"details": "Ctns KO mice at 8 months of age, 2 months of treatment, urine, mean ± SEM"}, "[11]": {"details": "IC50 for TC:B12/megalin interaction (mM; 95%CI)"}},
  "note": "Where two headings read alike, the source gives them in different places.",
  "data": [
    {"smiles": "NC(N)=NCCC[C@@H](N)C(=O)O", "note": "[5x-D-arginine, D-arginine]", "values": [
      {"measurement": "IC50", "setting": "porcine megalin [1]; [8]", "value": 60, "unit": "mM"},
      {"measurement": "SPR signal of amino-acid alone on megalin chip", "setting": "porcine megalin [1]", "value": "no signal was detected"},
      {"measurement": "effect on megalin binding of lysozyme", "setting": "porcine megalin [2]", "value": "concentration-dependent decrease"},
      {"measurement": "tolerance of prolonged diet", "setting": "[3]", "value": "weight loss and eventual high mortality"}
    ]},
    {"smiles": "NCCCC[C@@H](N)C(=O)O", "note": "[5x-D-lysine, D-lysine]", "values": [
      {"measurement": "Urinary alanine", "setting": "[4]; [9]", "value": "1097 ± 106.5", "unit": "mM/M creatinine"},
      {"measurement": "Urinary arginine", "setting": "[4]; [9]", "value": "265 ± 27.5", "unit": "mM/M creatinine"},
      {"measurement": "Urinary cystine", "setting": "[4]; [9]", "value": "481.6 ± 32.8", "unit": "mM/M creatinine"},
      {"measurement": "Urinary glycine", "setting": "[4]; [9]", "value": "1066 ± 162", "unit": "mM/M creatinine"},
      {"measurement": "Urinary lysine", "setting": "[4]; [9]", "value": "123,851 ± 8548 mM/M creatinine"},
      {"measurement": "urinary lysine concentration reached", "setting": "[4]; Ctns KO mice, daily urine collections", "value": "~ 150 mM"},
      {"measurement": "increase of argininuria", "setting": "[4]; Ctns KO mice, vs control diet", "value": 12, "unit": "fold"},
      {"measurement": "increase of cystinuria", "setting": "[4]; Ctns KO mice, vs control diet", "value": 7, "unit": "fold"},
      {"measurement": "increase of lysinuria", "setting": "[4]; Ctns KO mice, vs control diet", "value": 2200, "unit": "fold"},
      {"measurement": "mean kidney cystine at 8 months-of-age", "setting": "Ctns KO mice kidneys; Ctns KO female mice", "value": "44.6 ± 10.8 nmol hemi-cystine/mg kidney protein"},
      {"measurement": "kidney cystine accumulation during the treatment period", "setting": "Ctns KO mice kidneys; Ctns KO mice", "value": "probably fully arrested"},
      {"measurement": "liver cystine level at 8 months-of-age", "setting": "Ctns KO mice liver", "value": "did not affect"},
      {"measurement": "IC50", "setting": "porcine megalin [1]; [8]", "value": 22, "unit": "mM"},
      {"measurement": "SPR signal of amino-acid alone on megalin chip", "setting": "porcine megalin [1]", "value": "no signal was detected"},
      {"measurement": "increase of microalbuminuria vs control diet", "setting": "megalin pathway [5]; Ctns KO female mice, diet from 6-to-8 months of age", "value": "> twofold"},
      {"measurement": "Urine CC16/creatinine", "setting": "megalin pathway [5]; [10]", "value": "18,257 ± 1488 μg/g"},
      {"measurement": "Urine microalbumin/creatinine", "setting": "megalin pathway [5]; [10]", "value": "0.5 ± 0.2 (n = 8) mg/g"},
      {"measurement": "Body weight", "setting": "[6]", "value": "22.4 ± 0.3", "unit": "g"},
      {"measurement": "Serum creatinine", "setting": "[6]; serum", "value": "0.8 ± 0.1", "unit": "mg/dL"},
      {"measurement": "Serum cystatin-C", "setting": "[6]; serum", "value": "723.3 ± 32.7", "unit": "ng/mL"},
      {"measurement": "Serum glucose", "setting": "[6]; serum", "value": "172.4 ± 7.9", "unit": "mg/dL"},
      {"measurement": "Serum phosphate", "setting": "[6]; serum", "value": "9.5 ± 0.4", "unit": "mg/dL"},
      {"measurement": "Serum urea", "setting": "[6]; serum", "value": "43.2 ± 2.0", "unit": "mg/dL"},
      {"measurement": "Daily creatinine output", "setting": "[6]; urine", "value": "0.7 ± 0.1", "unit": "mg/day"},
      {"measurement": "Diuresis", "setting": "[6]; urine", "value": "5.3 ± 0.8", "unit": "mL/day"},
      {"measurement": "Urine creatinine", "setting": "[6]; urine", "value": "13.4 ± 1.2", "unit": "mg/dL"},
      {"measurement": "Urine glucose/creatinine", "setting": "[6]; urine", "value": "54.4 ± 4.5", "unit": "g/g"},
      {"measurement": "Urine phosphate/creatinine", "setting": "[6]; urine", "value": "4.8 ± 0.4", "unit": "g/g"},
      {"measurement": "Urine urea/creatinine", "setting": "[6]; urine", "value": "181.8 ± 11.6", "unit": "g/g"},
      {"measurement": "effect on megalin binding of lysozyme", "setting": "porcine megalin [2]", "value": "concentration-dependent decrease"},
      {"measurement": "increase of urinary excretion of CC16 (normalized for creatinine excretion)", "setting": "megalin pathway [7]", "value": 20, "unit": "fold"},
      {"measurement": "tolerance of prolonged diet", "setting": "[3]", "value": "strong polyuria but no weight loss"}
    ]},
    {"smiles": "N=C(N)NCCC[C@H](N)C(=O)O", "note": "[arginine]", "values": [
      {"measurement": "IC50", "setting": "porcine megalin [1]; [11]", "value": "~60", "unit": "mM"}
    ]},
    {"smiles": "NCC(=O)O", "note": "[glycine]", "values": [
      {"measurement": "SPR signal of amino-acid alone on megalin chip", "setting": "porcine megalin [1]", "value": "no signal was detected"},
      {"measurement": "effect on megalin:TC:B12 interaction", "setting": "porcine megalin [1]; up to 100 mM", "value": "No detectable effect"},
      {"measurement": "effect on megalin binding of lysozyme", "setting": "porcine megalin [2]", "value": "No detectable effect"}
    ]},
    {"smiles": "NCCCC[C@H](N)C(=O)O", "note": "[lysine]", "values": [
      {"measurement": "IC50", "setting": "porcine megalin [1]; [11]", "value": "~25", "unit": "mM"}
    ]}
  ]
}
